Test results from PubChem BioAssay AID652230 (The Scripps Research Institute Molecular Screening Center, 2013).
Active and inactive are the calls of the source.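 The calls were made as follows: active = IC50 below 10 µM for blocking the phosphatase PP5; inactive = IC50 at or above 10 µM.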

Target: Serine/threonine-protein phosphatase 5 (Homo sapiens) (UniProt P53041)
Experiment: PP5 catalytic domain inhibition, concentration series – biochemical, fluorescence, OMFP substrate, powder samples, set 2, selectivity assay for PP1 inhibitor project, dose response (AID 652230)
Conditions: purified PP5c, OMFP dephosphorylation

Serine/threonine-protein phosphatase 5 (Homo sapiens), sequence (P53041 whole entry, looked up, the tested form may be a part): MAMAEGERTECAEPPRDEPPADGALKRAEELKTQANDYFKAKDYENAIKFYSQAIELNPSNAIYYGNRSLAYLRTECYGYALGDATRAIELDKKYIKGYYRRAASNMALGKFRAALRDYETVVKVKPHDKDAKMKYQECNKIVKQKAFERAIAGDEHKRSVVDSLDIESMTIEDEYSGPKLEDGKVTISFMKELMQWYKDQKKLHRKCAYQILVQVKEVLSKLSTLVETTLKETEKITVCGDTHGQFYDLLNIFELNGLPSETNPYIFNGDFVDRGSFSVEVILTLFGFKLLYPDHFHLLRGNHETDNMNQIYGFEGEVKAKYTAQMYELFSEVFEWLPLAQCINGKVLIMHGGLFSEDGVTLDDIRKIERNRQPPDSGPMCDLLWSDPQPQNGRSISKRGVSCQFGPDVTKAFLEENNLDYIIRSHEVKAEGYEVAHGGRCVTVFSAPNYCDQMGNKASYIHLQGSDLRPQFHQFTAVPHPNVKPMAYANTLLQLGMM

IC50	SMILES
inactive	CN1CCN([C@H](c2ncccn2)c2ccc3cccnc3c2O)CC1
inactive	CN1CCN([C@@H](c2ncccn2)c2ccc3cccnc3c2O)CC1
